Test results taken from patent publication US8912120B2, “Herbicidal compositions comprising 4-amino-3-chloro-5-fluoro-6-(4-chloro-2-fluoro-3-methoxyphenyl) pyridine-2-carboxylic acid or a derivative thereof and synthetic auxin herbicides” (Dow AgroSciences, LLC., priority 2012, dated 2014).

Assays:
[1] = tested on: CYPRO; experiment: Example II: in-water applied herbicidal mixtures, weed control in transplanted paddy rice (greenhouse), CYPRO; assay type: in vivo, Cyperus rotundus (purple nutsedge); conditions: 20 DAA; 8.75 gae/ha
Protocol: The prepared mud was dispensed in 365 mL aliquots into 16-ounce (oz.) non-perforated plastic pots with a surface area of 86.59 square centimeters (cm^2) leaving a headspace of 3 centimeters (cm) in each pot Mud was allowed to dry overnight prior to planting or transplanting. Rice seeds were planted in Sun Gro MetroMix® 306 planting mixture, which typically has a pH of 6.0 to 6.8 and an organic matter content of about 30 percent, in plastic plug trays. Seedlings at the second or third leaf stage of growth were transplanted into 840 mL of mud contained in 32-oz. non-perforated plastic pots with a surface area of 86.59 cm^2 4 days prior to herbicide application. […] Nutrients were added as Osmocote® (19:6:12, N:P:K^+ minor nutrients) at 2 g per 16-oz. pot and 4 g per 32-oz. pot.
Applications were made by injecting with a pipetter appropriate amounts of the application solutions, individually and sequentially, into the aqueous layer of the paddy. Control plants were treated in the same manner with the solvent blank. Applications were made so that all treated plant material received the same concentrations of acetone and crop oil concentrate.

[2] = tested on: IPOHE; experiment: Example I: postemergence foliar-applied herbicidal mixtures, direct seeded rice, IPOHE; assay type: in vivo, Ipomoea hederacea (ivyleaf morningglory)
Protocol: (§2) The soil matrix was contained in plastic pots with a volume of 1 quart and a surface area of 83.6 square centimeters (cm^2). […] The plants were grown for 8-22 days in a greenhouse with an approximate 14 h photoperiod which was maintained at about 29° C. during the day and 26° C. during the night. Nutrients (Peters Excel® 15-5-15 5-Ca 2-Mg and iron chelate) were applied in the irrigation solution as needed and water was added on a regular basis. Supplemental lighting was provided with overhead metal halide 1000-Watt lamps as necessary. The plants were employed for testing when they reached the first through fourth true leaf stage.
(§3) Treatments consisted of the acid or esters of 4-amino-3-chloro-5-fluoro-6-(4-chloro-2-fluoro-3-methoxy-phenyl)pyridine-2-carboxylic acid (Compound A), each formulated as an SC (suspension concentrate), and various herbicidal components alone and in combination. Forms of compound A were applied on an acid equivalent basis.
(§4) For treatments comprised of formulated compounds, measured amounts of compounds were placed individually in 25 mL glass vials and diluted in a volume of 1.25% (v/v) Agri-Dex® crop oil concentrated to obtain 12× stock solutions. […] Application solutions were prepared by adding an appropriate amount of each stock solution (e.g., 1 mL) and diluted to the appropriate final concentrations with the addition of 10 mL of an aqueous mixture of 1.25% (v/v) crop oil concentrate so that the final spray solutions contained 1.25+/−0.05% (v/v) crop oil concentrate.
(§5) All stock solutions and applications solutions were visually inspected for compound compatibility prior to application. Spray solutions were applied to the plant material with an overhead Mandel track sprayer equipped with a 8002E nozzles calibrated to deliver 187 L/ha over an application area of 0.503 m^2 at a spray height of 18 to 20 inches (46 to 50 cm) above average plant canopy height. Control plants were sprayed in the same manner with the solvent blank.
(§6) The treated plants and control plants were placed in a greenhouse as described above and watered by sub-irrigation to prevent wash-off of the test compounds. After approximately 3 weeks, the condition of the test plants as compared with that of the untreated plants was determined visually and scored on a scale of 0 to 100 percent where 0 corresponds to no injury or growth inhibition and 100 corresponds to complete kill.
(§7) Colby's equation was used to determine the herbicidal effects expected from the mixtures (Colby, S. R. 1967. Calculation of the synergistic and antagonistic response of herbicide combinations. Weeds 15:20-22).
(§8) The following equation was used to calculate the expected activity of mixtures containing two active ingredients, A and B: Expected=A+B−(A×B/100)
(§9) A=observed efficacy of active ingredient A at the same concentration as used in the mixture.
(§10) B=observed efficacy of active ingredient B at the same concentration as used in the mixture.

[3] = tested on: LEFCH; experiment: Example I: postemergence foliar-applied herbicidal mixtures, direct seeded rice, LEFCH; assay type: in vivo, Leptochloa chinensis (Chinese sprangletop)
[4] = tested on: CYPIR; experiment: Example I: postemergence foliar-applied herbicidal mixtures, direct seeded rice, CYPIR; assay type: in vivo, Cyperus iria (rice flatsedge)
Protocol: as §2, §3, §4, §5, §6, §7, §8, §9, §10

[5] = tested on: LEFCH; experiment: Example II: in-water applied herbicidal mixtures, transplanted paddy rice, LEFCH; assay type: in vivo, Leptochloa chinensis (Chinese sprangletop); conditions: for Visual Weed Control (%) - 21 DAA LEFCH Obs / Visual Weed Control (%) - 25 DAA LEFCH Obs: in-water application
How it was run: (§1)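 Greenhouse in-water application: products pipetted one after another into the aqueous layer over mud-grown transplanted rice, with rice seedlings at the 2nd–3rd leaf stage transplanted 4 days earlier. Controls got the solvent blank only; every pot received matching acetone and crop oil concentrate.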

[6] = tested on: ECHCO; experiment: Example I: postemergence foliar-applied herbicidal mixtures, direct seeded rice, ECHCO; conditions: for Visual Weed Control (%) - 21 DAA ECHCO Obs: Fluroxypyr MHE 0 gae/ha
Protocol: as §2, §3, §4, §5, §6, §7, §8, §9, §10

[7] = tested on: PANMI; experiment: Example III: postemergence foliar-applied herbicidal mixtures, row crop weeds, PANMI; assay type: in vivo, Panicum miliaceum (wild-proso millet); conditions: 16 DAA
Protocol: The plants were grown for 7-31 days (d) in a greenhouse with an approximate 15 hour (h) photoperiod which was maintained at about 23-29° C. during the day and 22-28° C. during the night.

[8] = tested on: ECHCG; experiment: Example II: in-water applied herbicidal mixtures, transplanted paddy rice, ECHCG; assay type: in vivo, Echinochloa crus-galli (barnyardgrass); conditions: for Visual Weed Control (%) - 21 DAA ECHCG Obs / Visual Weed Control (%) - 22 DAA ECHCG Obs: in-water application
How it was run: as §1

Structure (SMILES): COc1c(Cl)ccc(-c2nc(C(=O)OCc3ccccc3)c(Cl)c(N)c2F)c1F [Compound A Benzyl Ester, benzyl ester of 4-amino-3-chloro-5-fluoro-6-(4-chloro-2-fluoro-3-methoxy-phenyl)pyridine-2-carboxylic acid]
- Visual Weed Control (%) Obs [1]: 0%
- Visual Weed Control (%) - 20 DAA IPOHE Obs ([2]; 4.38 gae/ha): 0%
- Visual Weed Control (%) - 20 DAA IPOHE Obs ([2]; 8.75 gae/ha): 10%
- Visual Weed Control (%) - 20 DAA IPOHE Obs ([2]; 17.5 gae/ha): 25%
- Visual Weed Control (%) - 20 DAA LEFCH Obs ([3]; 4.38 gae/ha): 0%
- Visual Weed Control (%) - 20 DAA LEFCH Obs ([3]; 8.75 gae/ha): 20%
- Visual Weed Control (%) - 19 DAA LEFCH Obs ([3]; 16 gae/ha): 58%
- Visual Weed Control (%) - 21 DAA CYPIR Obs ([4]; 4.38 gae/ha): 75%
- Visual Weed Control (%) - 20 DAA CYPIR Obs ([4]; 8.75 gae/ha): 35%
- Visual Weed Control (%) - 21 DAA CYPIR Obs ([4]; 8.75 gae/ha): 85%
- Visual Weed Control (%) - 21 DAA LEFCH Obs ([5]; 4.38 gae/ha): 0%
- Visual Weed Control (%) - 21 DAA LEFCH Obs ([5]; 8.75 gae/ha): 0%
- Visual Weed Control (%) - 25 DAA LEFCH Obs ([5]; 8.75 gae/ha): 50%
- Visual Weed Control (%) - 21 DAA LEFCH Obs ([5]; 17.5 gae/ha): 0%
- Visual Weed Control (%) - 25 DAA LEFCH Obs ([5]; 17.5 gae/ha): 90%
- Visual Weed Control (%) Obs ([5]; 19 DAA, 35 gae/ha): 80%
- Visual Injury (%) Obs ([5]; 25 DAA, 8.75 gae/ha): 50%
- Visual Weed Control (%) Obs ([5]; 25 DAA, 8.75 gae/ha): 50%
- Visual Injury (%) Obs ([5]; 25 DAA, 17.5 gae/ha): 90%
- Visual Weed Control (%) Obs ([5]; 25 DAA, 17.5 gae/ha): 90%
- Visual Weed Control (%) - 20 DAA ECHCO Obs ([6]; 4.38 gae/ha): 50%
- Visual Weed Control (%) - 23 DAA ECHCO Obs ([6]; 4.38 gae/ha): 40%
- Visual Weed Control (%) - 20 DAA ECHCO Obs ([6]; 8.75 gae/ha): 75%
- Visual Weed Control (%) - 23 DAA ECHCO Obs ([6]; 8.75 gae/ha): 40%
- Visual Weed Control (%) - 23 DAA ECHCO Obs ([6]; 17.5 gae/ha): 75%
- Visual Weed Control (%) - 21 DAA ECHCO Obs ([6]; Compound A Benzyl Ester rate printed '—' (second line)): 75%
- Visual Weed Control (%) - 21 DAA ECHCO Obs ([6]; Compound A Benzyl Ester rate printed '—'): 70%
- Visual Weed Control (%) Obs ([7]; 3.75 gae/ha): 15%
- Visual Weed Control (%) Obs ([7]; 7.5 gae/ha): 50%
- Visual Weed Control (%) Obs ([7]; 15 gae/ha): 75%
- Visual Weed Control (%) - 21 DAA ECHCG Obs ([8]; 4.38 gae/ha): 0%
- Visual Weed Control (%) - 22 DAA ECHCG Obs ([8]; 4.38 gae/ha): 30%
- Visual Weed Control (%) - 21 DAA ECHCG Obs ([8]; 8.75 gae/ha): 0%
- Visual Weed Control (%) - 22 DAA ECHCG Obs ([8]; 8.75 gae/ha): 45%
- Visual Weed Control (%) - 21 DAA ECHCG Obs ([8]; 17.5 gae/ha): 25%
- Visual Weed Control (%) Obs ([8]; 19 DAA, 8 gae/ha): 35%
- Visual Weed Control (%) Obs ([8]; 19 DAA, 16 gae/ha): 85%
- Visual Weed Control (%) Obs ([8]; 20 DAA, 4.38 gae/ha): 15%
- Visual Weed Control (%) Obs ([8]; 20 DAA, 8.75 gae/ha): 20%
- Visual Weed Control (%) Obs ([8]; 20 DAA, 17.5 gae/ha): 40%
- Visual Weed Control (%) Obs ([8]; 22 DAA, 4.38 gae/ha): 30%
- Visual Weed Control (%) Obs ([8]; 22 DAA, 8.75 gae/ha): 45%
- Visual Weed Control (%) Obs ([8]; 22 DAA, 17.5 gae/ha): 90%
